Consider 24 compounds from patent US5993889A, “Trehalose phosphorylase, its preparation and use” (Kabushiki Kaisha Hayashibara Seibutsu Kagaku Kenkyujo, priority 1996, dated 1999).

Format in all cases: biochemical, Thermoanaerobium brockii
The target in assay [1] is T1, trehalose phosphorylase (Thermoanaerobacter brockii, UniProt Q8L164).
T1 construct: recombinant E. coli enzyme (pTTP4) equivalent
T1 sequence (Q8L164 2-774): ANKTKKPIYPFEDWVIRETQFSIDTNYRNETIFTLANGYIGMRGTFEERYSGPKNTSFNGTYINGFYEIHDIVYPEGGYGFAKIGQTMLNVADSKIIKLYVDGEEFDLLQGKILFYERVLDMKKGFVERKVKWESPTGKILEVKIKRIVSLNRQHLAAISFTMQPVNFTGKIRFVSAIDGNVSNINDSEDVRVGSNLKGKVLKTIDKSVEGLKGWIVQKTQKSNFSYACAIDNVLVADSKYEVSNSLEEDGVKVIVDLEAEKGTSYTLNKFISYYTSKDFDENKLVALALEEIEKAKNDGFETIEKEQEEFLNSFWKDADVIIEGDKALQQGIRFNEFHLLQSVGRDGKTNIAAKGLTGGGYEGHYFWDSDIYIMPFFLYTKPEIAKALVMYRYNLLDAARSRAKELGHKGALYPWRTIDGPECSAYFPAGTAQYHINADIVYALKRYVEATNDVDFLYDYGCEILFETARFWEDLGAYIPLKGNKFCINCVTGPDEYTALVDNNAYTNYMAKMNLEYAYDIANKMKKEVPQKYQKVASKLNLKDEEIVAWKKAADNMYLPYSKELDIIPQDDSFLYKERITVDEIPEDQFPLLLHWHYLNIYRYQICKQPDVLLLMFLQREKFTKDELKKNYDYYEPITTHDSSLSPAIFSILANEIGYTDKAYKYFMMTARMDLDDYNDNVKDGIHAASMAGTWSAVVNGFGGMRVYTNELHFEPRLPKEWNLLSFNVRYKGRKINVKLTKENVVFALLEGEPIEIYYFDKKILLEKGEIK
As to the kind of experiment: Trehalose phosphorylase activity assay: inhibition and activation by added substances. Conditions: one mM. Here is the method: The present trehalose phosphorylase activity is assayed as follows: Add 0.2 ml of an enzyme solution to 2 ml of 20 mM phosphate buffer (pH 7.0) containing 1.0 w/v % trehalose as a substrate, incubate the solution at 60° C. for 30 min, sample the reaction mixture in an amount of 0.5 ml, and incubate the sample at 100° C. for 10 min to suspend the enzymatic reaction. Add 0.5 ml of D-glucose oxidase/peroxidase reagent to the heated sample, stir the mixture, keep the mixture at 40° C. for 30 min, add 2.5 ml of 5-N hydrochloric acid, stir the resulting mixture, and measure the absorbance of the mixture at a wavelength of 525 nm. One unit of the enzyme activity is defined as the enzyme that forms one […] of D-glucose per one minute. The activity of maltose- and kojibiose-phosphorylases can be assayed similarly as the same assay as indicated above except that the trehalose as a substrate is respectively replaced with maltose and kojibiose.
Influences of temperatures and pHs on the present trehalose phosphorylase activity were studied in accordance with the assay for enzyme activity. To study the influence of temperatures, the enzyme was reacted at temperatures of about 50-85° C. in place of 60° C. as used in the enzyme assay. In the case of studying the influence of pHs, the enzyme was reacted at pHs of about 4-9 in place of the buffer's pH as used in the assay for the enzyme activity. In both cases, the enzymatic reactions were suspended similarly as in the enzyme assay, followed by quantifying the formed glucose. […] The thermal stability of the enzyme was determined by incubating the enzyme dissolved in 10 mM phosphate buffer (pH 7.0) at a temperature of about 40-85° C. for one hour, cooling the incubated enzyme, and assaying for the residual enzyme activity according to the enzyme assay. The pH stability of the enzyme was determined by dissolving the enzyme in buffers with different pHs of about 4-10, keeping each enzyme solution at 4° C. for 24 hours, adjusting each solution to give a pH of 7.0, and assaying for the residual enzyme activity according to the enzyme assay. […] The enzyme activity was inhibited by one mM Cu^++, Pb^++, Zn^++, Hg^++, Mg^++, or Mn^++.

Assay [2] deals with T1, trehalose phosphorylase. As to the kind of experiment: Substrate specificity for saccharide-hydrolyzing reaction by trehalose phosphorylase (TLC). Also noted: key: +: Hydrolyzed by the action of the present trehalose phosphorylase.; -: Not hydrolyzed by the action of the present trehalose phosphorylase. The note with it: saccharide 2 w/v %, 10 units/g saccharide purified enzyme, 5 mM disodium hydrogenphosphate, 60° C., pH 7.0, 24 hours. How it is done: An aqueous solution of a saccharide selected from D-glucose, maltose, sucrose, lactose, trehalose, neotrehalose, cellobiose, melibiose, kojibiose, isomaltose, sophorose, gentibiose, nigerose, laminaribiose, maltopentaose, and 4-O-α-D-glucosyltrehalose was mixed with 10 units/g saccharide, d.s.b., of a purified trehalose phosphorylase obtained by the method in Experiment 2, and incubated in the presence of 5 mM disodium hydrogenphosphate at 60° C. and pH 7.0 for 24 hours. The saccharide concentration of each reaction solution was 2 w/v %. Pre-reaction solutions and post-reaction mixtures were subjected to thin layer chromatography (hereinafter abbreviated as "TLC") using "KIESELGEL 60 (20×20 cm)", an aluminum plate for TLC commercialized by Merck & Co., Inc., Rahway, USA. Samples were developed once at ambient temperature on the plate using 1-butanol/pyridine/water (=7:3:1 by volume) as a developing solvent system, and the plate was sprayed with 20 v/v % sulfuric acid/methanol solution, and heated at 110° C. for about 10 min for coloration. Comparing spots of the solutions and mixtures detected on the plates, it was checked whether the enzyme acted on the saccharides.

The target of assay [3] is T1, trehalose phosphorylase. As to the kind of experiment: Specificity to acceptor in glucosyl-transferring saccharide-forming reaction by trehalose phosphorylase (TLC). The note with it: used as donor in place of β-D-glucose-1-phosphoric acid. Here is the method: An aqueous solution, which dissolved in an equal amount, by dry weight, […], […] obtained by the method in Experiment 2, and enzymatically reacted at 60° C. and pH 7.0 for 24 hours. Similarly as in Experiment 5, the pre-reaction solutions and the post-reaction mixtures were subjected to TLC, followed by coloring the plates. Comparing spots of the samples of the solutions and mixtures detected on the plates, it was judged whether transferred saccharides were formed based on newly detected spots of the post reaction mixtures. By macroscopically observing the coloration degree of the newly detected spots, the yield of the transferred saccharides was relatively evaluated.

Consider `O[C@H](CS)[C@H](O)CS` (racemic) [dithiothreitol], for which the “Activation and stabilization of the enzyme” value at trehalose phosphorylase [1] is given as “Activated”.

For the compound `OC[C@H]1O[C@H](O[C@H]2O[C@H](CO)[C@@H](O[C@H]3O[C@H](CO)[C@@H](O)[C@H](O)[C@H]3O)[C@H](O)[C@H]2O)[C@H](O)[C@@H](O)[C@@H]1O` [4-O-α-D-glucosyltrehalose], the Decomposition entry at trehalose phosphorylase [2] is “-”.

Take `OC[C@H]1O[C@@H](O[C@H]2[C@H](O)[C@@H](O)C(O)O[C@@H]2CO)[C@H](O)[C@@H](O)[C@@H]1O` (stereo partly drawn) [Cellobiose]: the Decomposition result on trehalose phosphorylase [2] is “-”.

For `[Cu+2]` [Cu^++], on trehalose phosphorylase [1], the Enzyme activity inhibition entry is recorded as “inhibited”.

Consider `OC[C@H]1OC(O)[C@H](O)[C@@H](O)[C@@H]1O` (stereo partly drawn) [D-Glucose], for which, at trehalose phosphorylase [2], the Decomposition entry was “-”.

As for `OC[C@H]1O[C@@H](OC[C@H]2OC(O)[C@H](O)[C@@H](O)[C@@H]2O)[C@H](O)[C@@H](O)[C@@H]1O` (stereo partly drawn) [Gentibiose], the Decomposition result at trehalose phosphorylase [2] is on record as “-”.

`[Hg+2]` [Hg^++]: the Enzyme activity inhibition entry on trehalose phosphorylase [1] is on record as “inhibited”.

For the compound `OC[C@H]1O[C@H](OC[C@H]2OC(O)[C@H](O)[C@@H](O)[C@@H]2O)[C@H](O)[C@@H](O)[C@@H]1O` (stereo partly drawn) [Isomaltose], the Decomposition result on trehalose phosphorylase [2] is listed as “-”.

For `OC[C@H]1O[C@H](O[C@H]2C(O)O[C@H](CO)[C@@H](O)[C@@H]2O)[C@H](O)[C@@H](O)[C@@H]1O` (stereo partly drawn) [Kojibiose], the Decomposition entry at trehalose phosphorylase [2] is reported as “-”.

Turning to `OC[C@H]1O[C@@H](O[C@H]2[C@H](O)[C@@H](O)C(O)O[C@@H]2CO)[C@H](O)[C@@H](O)[C@H]1O` (stereo partly drawn) [Lactose], at trehalose phosphorylase [2], the Decomposition result is on record as “-”.

For the compound `OC[C@H]1O[C@@H](O[C@H]2[C@H](O)[C@@H](CO)OC(O)[C@@H]2O)[C@H](O)[C@@H](O)[C@@H]1O` (stereo partly drawn) [Laminaribiose], on trehalose phosphorylase [2], the Decomposition result is “-”.

Turning to `OC[C@H]1O[C@H](O[C@H]2[C@H](O)[C@@H](O)[C@@H](O[C@H]3[C@H](O)[C@@H](O)[C@@H](O[C@H]4[C@H](O)[C@@H](O)[C@@H](O[C@H]5[C@H](O)[C@@H](O)C(O)O[C@@H]5CO)O[C@@H]4CO)O[C@@H]3CO)O[C@@H]2CO)[C@H](O)[C@@H](O)[C@@H]1O` (stereo partly drawn) [Maltopentaose], the Decomposition entry at trehalose phosphorylase [2] was “-”.

As for `OC[C@H]1O[C@H](O[C@H]2[C@H](O)[C@@H](O)[C@H](O)O[C@@H]2CO)[C@H](O)[C@@H](O)[C@@H]1O` [Maltose], the Decomposition result on trehalose phosphorylase [2] is on record as “-”.

On to `OC[C@H]1O[C@H](OC[C@H]2OC(O)[C@H](O)[C@@H](O)[C@@H]2O)[C@H](O)[C@@H](O)[C@H]1O` (stereo partly drawn) [Melibiose], for which the Decomposition result on trehalose phosphorylase [2] is on record as “-”.

In the case of `[Mg+2]` [Mg^++], the Enzyme activity inhibition entry on trehalose phosphorylase [1] was “inhibited”.

On to `[Mn+2]` [Mn^++], for which the Enzyme activity inhibition result at trehalose phosphorylase [1] is “inhibited”.

Consider `OC[C@H]1O[C@@H](O[C@H]2O[C@H](CO)[C@@H](O)[C@H](O)[C@H]2O)[C@H](O)[C@@H](O)[C@@H]1O` [Neotrehalose], for which the Decomposition result on trehalose phosphorylase [2] is on record as “-”.

Turning to `OC[C@H]1O[C@H](O[C@H]2[C@H](O)[C@@H](CO)OC(O)[C@@H]2O)[C@H](O)[C@@H](O)[C@@H]1O` (stereo partly drawn) [Nigerose], at trehalose phosphorylase [2], the Decomposition result is “-”.

Take `[Pb+2]` [Pb^++]: at trehalose phosphorylase [1], the Enzyme activity inhibition result is recorded as “inhibited”.

Take `OC[C@H]1O[C@@H](O[C@H]2C(O)O[C@H](CO)[C@@H](O)[C@@H]2O)[C@H](O)[C@@H](O)[C@@H]1O` (stereo partly drawn) [Sophorose]: at trehalose phosphorylase [2], the Decomposition result was “-”.

In the case of `OC[C@H]1O[C@@](CO)(O[C@H]2O[C@H](CO)[C@@H](O)[C@H](O)[C@H]2O)[C@@H](O)[C@@H]1O` [Sucrose], the Decomposition entry on trehalose phosphorylase [2] was “-”.

On to `OC[C@H]1O[C@H](O[C@H]2O[C@H](CO)[C@@H](O)[C@H](O)[C@H]2O)[C@H](O)[C@@H](O)[C@@H]1O` [Trehalose], for which, at trehalose phosphorylase [2], the Decomposition entry was “+”.

As to `[Zn+2]` [Zn^++], the Enzyme activity inhibition entry on trehalose phosphorylase [1] was “inhibited”.

Consider `O=P(O)(O)O[C@H]1O[C@H](CO)[C@@H](O)[C@H](O)[C@H]1O` [α-D-glucose-1-phosphoric acid], for which, on trehalose phosphorylase [3], the “Formation of glucosyl-transferred saccharide when used as saccharide donor” value is reported as “No glucosyl-transferred saccharide was obtained”.
